Data on five compounds can be found in US20250255968A1, “INTRAVAGINAL DEVICES FOR DRUG DELIVERY” (priority 2011, published 2025).

Structures can show the parent of a compound that is named as a salt.

Holding throughout (type): physicochemical
Data set [1] in a line: In vitro release of EVG, DPV and TFV from hydrophilic polyurethane tubing reservoir rings. The conditions noted are these: for TFV steady-state release rate: in presence of DPV or EVG. The text has this:
Elvitegravir (EVG), TFV, and glycerol (63/5/32 wt % TFV/EVG/glycerol-water, where glycerol was premixed as a 33/2 wt % stock solution) was loaded into the lumen of 35 wt % swelling hydrophilic polyurethane single-segment tubing with 5.5 mm cross-sectional diameter and 0.7 mm wall thickness. […] Similarly, dapivirine (DPV) was formulated in various equilibrium swelling hydrophilic polyurethane tubing lumens (all with 5.5 mm cross-sectional diameter and 0.7 mm wall thickness) at 63/5/32 wt % TFV/DPV/glycerol-water (mean±SD, N=5). […] Both DPV and EVG rings described above were tested for in vitro release immediately after ring fabrication. It is known from above examples, as well as previously published work that amphiphilic and lipophilic compounds including DPV often are soluble in polyurethanes up to 20 wt %. Therefore, a ring delivering hydrophobic APIs, such as EVG or DPV, should show little or no lag time in releasing the drug after adequate storage time, since the API should partition into the tubing wall on ring storage. TFV release from HTPU 35 and 60% swelling rings was not noticeably affected by the presence of DPV and EVG (TFV steady-state release rates were approximately 13 and 22 mg/day, respectively).

Data set [2] can be described thus: In vitro release of IQP-0528 from hydrophobic tubing IVR. The following applies: for 30 days; core 48 wt % drug/52 wt % glycerol in Tecoflex EG85A tubing preloaded with 4.7 wt % drug. The text has this: An IVR as described in Examples 1, 2, 3, and 9 is manufactured by premixing hydrophobic small molecule API (such as IQP-0528, UC-781, or levonorgestrel) with non-swellable polymer (such as Tecoflex®) and titanium dioxide. The tubing is then extruded as described above using a single screw extruder and tubing crosshead. The tubing may or may not incorporate reinforced/braided tubing or metallic springs to mechanically support the wall. The tubing is then filled with the API and excipient(s) mixture and joined to make a ring as described above. […] The core is composed of 48 wt % drug and 52 wt % glycerol paste filled in a hydrophobic tubing (Tecoflex® EG85A) preloaded with 4.7 wt % drug. In this example, approximately 600 μg of IQP-0528 was released daily for 30 days.

Data set [3] is described as follows: TDF release from HydroThane IVR after storage at elevated temperature. Here is the method:
As a means of diminishing or eliminating API release lag-time, devices may be stored at elevated temperature ranging from 40° C. to 70° C., depending on drug stability, for a predetermined amount of time to accelerate diffusion of the API from the tubing lumen to the tubing wall. After a predetermined time/temperature storage, the API loading in the device wall be equilibrated and the device will show minimal or no lag-time in drug release. This approach works for APIs which show some solubility in the rate-controlling polymer. Also, in certain instances this approach may negate the need for an osmotic agent. […] The IVRs are incubated at elevated temperatures, for example 65° C. for 5 days. […] This minimal amount of TDF in tubing wall reduced the lag time for equilibrium drug release and about 2-3 mg of TDF was delivered on days 1-3.

Data set [4] is described as follows: In vitro drug release testing of dual-segment TFV/LNG IVR in aqueous buffer sink. The conditions noted are these: hydrophilic tubing reservoir segment of dual-segment IVR. Here is the method:
Example 29B. In a further example, a TFV/glycerol/water (65/33/2 wt %) semi-solid paste was loaded into the hydrophilic tubing reservoir segment and LNG was dissolved in the hydrophobic solid core reservoir segment of a dual segment IVR made according to Example 29A (using similar polyurethane tubing). The resulting IVR was subjected to in vitro drug release testing in an aqueous buffer sink for 90 days.

Data set [5] in a line: In vitro TFV release from IVR with drug-impregnated polymeric core. The conditions noted are these: HPU 60/TFV (40% w/w) core jacketed with HPU 20/TFV (5% w/w); sodium acetate buffer pH 4.2, 37° C., 77 days, after initial burst. The text has this:
The HPU 20/TFV was used to jacket HPU 60/TFV using a twin-screw extruder and crosshead die. Reservoir rods were cut to approximately 14 cm sections, of which the ends were joined using an O-ring butt-welding clamp and medical grade Tecoflex® 1-MP fast-crystallization polyurethane adhesive, (200-300 cps viscosity, solution of polyurethane based polymer in methyl ethyl ketone and methylene chloride) resulting in a ring with 50-60 mm outer diameter and 5-6 mm outer cross-sectional diameter. […] Several of these IVRs were incubated at 37° C. and in sodium acetate buffer (pH 4.2) for 77 days. Sink conditions were maintained throughout the entire experiment. […] (See FIG. 5.)

Data set [6] can be described thus: In vitro tenofovir release from single-segment reservoir IVR (HPLC). The following applies: 35 wt % swelling Tecophilic HP-60D tubing IVR, TFV/glycerol 70/30 wt % core; pH 4.2 sodium acetate buffer, 37° C., 80 rpm. Here is the method:
(§1) In vitro tenofovir (TFV) release and IVR mechanical studies were conducted to evaluate device performance. IVRs were incubated in pH 4.2 sodium acetate buffer and placed in a 37° C., 80 rpm shaker for up to 120 days. Sink conditions were maintained throughout the entire experiment, and release media was changed daily. Quantification of amount of TFV released was determined using high performance liquid chromatography (HPLC) (aqueous mobile phase gradient method on reverse phase C18 column, Agilent 1200 series HPLC). Mechanical properties of the rings over time were measured by compressing rings 25% of their initial outer diameter at a rate of 1 mm/sec using an Instron 3342 mechanical testing system (Norwood, MA) with custom machined aluminum probe. The TFV release rapidly attained steady-state, and release was dependent on polymer equilibrium swelling. The 35 wt % polymer was able to maintain steady-state release through 105 days. Also, the ring mechanical properties changed little with time, even after all drug was released. (See FIG. 2.)

Data set [7] is described as follows: In vitro TFV release from Tecophilic HP-60D-35 IVR with or without osmotic agent glycerol. As to the method:
as §1

Turning to `Cc1cc(C)c(Nc2ccnc(Nc3ccc(C#N)cc3)n2)c(C)c1` [DPV, dapivirine], in data set [1] (various hydrophilic polyurethane rings, tested immediately after fabrication), the DPV lag time result is “approximately two weeks”.

For `COc1cc2c(cc1Cc1cccc(Cl)c1F)c(=O)c(C(=O)O)cn2[C@H](CO)C(C)C` [EVG, Elvitegravir], the EVG release rate entry in data set [1] (for 28 days, unstored rings, 35 wt % swelling hydrophilic polyurethane tubing, 63/5/32 wt % TFV/EVG/glycerol-water) was “over 300 μg/day”. Further, the EVG lag time entry in data set [1] (unstored rings, 35 wt % swelling hydrophilic polyurethane tubing) is “several-day lag time”.

For `Cc1cc(C)cc(C(=O)c2c(C(C)C)c(=O)[nH]c(=O)n2CC2CC2)c1` [IQP-0528], the IQP-0528 released daily result in data set [2] is recorded as “approximately 600 μg”.

Turning to `CC(C)OC(=O)OCOP(=O)(CO[C@H](C)Cn1cnc2c(N)ncnc21)OCOC(=O)OC(C)C` [TDF, tenofovir disoproxil fumarate], the “TDF concentration in tubing wall” value in data set [3] (HydroThane 25-93A IVR, TDF + sodium chloride (15 wt % of TDF), incubated 65° C. for 5 days) worked out at 5 mg/g polymer. In addition, the TDF delivered in data set [3] (on days 1-3, after 65° C. storage for 5 days) fell in the range of 2 to 3 mg.

Turning to `C[C@H](Cn1cnc2c(N)ncnc21)OCP(=O)(O)O` [TFV, ({[(2R)-1-(6-amino-9H-purin-9-yl)propan-2-yl]oxy}methyl)phosphonic acid], the “lag period before zero-order TFV release” value in data set [4] is 1 days. The TFV release profile entry was “Zero-order release” in data set [4] (TFV/glycerol/water 65/33/2 wt % paste, 90 days) and “zero-order fashion” in data set [5]. Further, the “duration of maintained steady-state TFV release” value in data set [6] came to 105 days. The “TFV steady-state release rate” value is “approximately 13 mg/day” in data set [1] (HTPU 35% swelling rings) and ~22 mg/day in data set [1] (HTPU 60% swelling rings). The “time to steady state TFV release rate” value is ≤ 3 days in data set [7] (65/33/2 wt % TFV/glycerol/water paste (glycerol 33 wt %)) and > 28 days in data set [7] (100% TFV powder in the core).
